Test results: patent publication US11680196B2, “Use of biodegradable hydrocarbon fluids as heat-transfer media” (TOTAL MARKETING SERVICES, priority 2016, dated 2023)

Assay: Thermal stability, percentage of decomposition (GB/T 23800-2009, modified)
Assay type: physicochemical
Conditions: after 500 hours at 320° C.
Description: The thermal stability has been evaluated in the present invention by measuring, according to the GB/T 23800-2009 standard, the percentage of decomposition of the fluid. The test performed in the present example differs from the standard by the temperature and the duration of the test. According to the example, the percentage of decomposition of the fluid has been measured after 500 hours at 320° C.
The fluid of Ex. 3 according to the invention and defined above has been compared with other commercial fluids: an alkylbenzene fluid, a dibenzyltoluene isomer, a mineral base oil and a hydrotreated mineral base oil.

Substance: dibenzyltoluene isomer
- Thermal stability (% of decomposition): 6.9%
